Results as given in paper PMC3764137, “Sulphamoylated 2-Methoxyestradiol Analogues Induce Apoptosis in Adenocarcinoma Cell Lines” (PLoS ONE, 2013).

Tests used:
Assay type in all cases: cell-based, human
HeLa cells [1] = experiment: Cell number determination by crystal violet staining; conditions: for cell growth: 24 h; for concentration that significantly inhibits HeLa proliferation: 24 h of exposure
Protocol: Crystal violet is a method used to determine the number of cells by staining the deoxyribonucleic acid (DNA). Gillies et al. (1986) used crystal violet to quantify cell number in monolayer cultures as a function of the absorbance of the dye taken up by the cells. A dose-dependent study was chosen with a concentration range of 0.1–25 μM since it was previously observed in our laboratory that this concentration series exerts antiproliferative activity in HeLa cells. Exponentially growing HeLa cells were seeded in 96 well tissue culture plates at a cell density of 5,000 cells per well. Cells were incubated at 37°C in a humidified atmosphere containing 5% CO2 for 24 h to allow for attachment. To establish the starting number of cells, a baseline determination was conducted before exposure. Subsequently, the medium was discarded and cells were exposed to the sulphamoylated 2ME2 analogues at a concentration series of 0.1–25 μM for the 24 h at 37°C. Vehicle-treated controls were also included. Cells were fixed with 100 µl of 1% gluteraldehyde (incubation for 15 min at room temperature). Gluteraldehyde was discarded and cells were stained using 100 µl 0.1% crystal violet (incubated at room temperature for 30 min). Excedent crystal violet was discarded and the 96 well plate was submersed under running water. Cells were solubilized using 200 µl 0.2% Triton X-100 and incubated at room temperature for 30 min. Solution (100 µl) was transferred to a new microtitre plate. Afterwards, the absorbance was determined at 570 nm using an ELx800 Universal Microplate Reader available from Bio-Tek Instruments Inc. (Vermont, United States of America).

caspase-6 = experiment: Caspase 6 colorimetric assay; conditions: 0.5 μM, 24 h
Protocol: (§1) Possible activation of caspase 3, -6 and -8 was investigated by means of caspase 3, caspase 6 and FLICE/caspase 8 colorimetric kits, respectively. Cells (1,000,000) were seeded with an overnight attachment policy. After 24 h of exposure to 0.5 μM of the sulphamoylated 2ME2 analogues, cells were detached with trypsin and centrifuged at 13,000× g. Cells (500,000) were resuspended in 50 µl of chilled cell lysis buffer and incubated on ice for 10 min. Cells were centrifuged at 10,000×g for a min. Supernatant was transferred to a fresh tube and put on ice. After determination of the protein concentration using the bicinchoninic acid (BCA) protein assay (Thermo Fisher Scientific, Johannesburg, South Africa), 100 µg protein/50 µl cell lysis buffer was mixed with 50 µl 2X reaction buffer (containing 10 mM Dithiothreitol (DTT)). Ac-Asp-Glu-Val-Asp-p-nitroanilide (Ac-DEVD-pNA) (5 µl of 4 mM) (caspase-3-specific substrate), or 5 µl 4 mM […] (Ac-VEID-pNA) (caspase-6-specific substrate), or 5 µl 4 mM Ac-Ile-Glu-Thr-Asp-p-nitroanilide (Ac-IETD-pNA) (caspase-8-specific substrate) was added and the mixture was incubated at 37°C for 120 min (200 µM final concentration). Absorbance was determined at 405 nm on the ELx800 Universal Microplate Reader available from Bio-Tek Instruments Inc. (Vermont, United States of America).

caspase 3 = experiment: Caspase 3 colorimetric assay in MDA-MB-231 cells; conditions: MDA-MB-231, 0.5 μM, 24 h
Protocol: as §1

HeLa cells [2] = experiment: Mitochondrial membrane potential assay (Mitocapture, flow cytometry); conditions: 0.5 μM analogues (2-methoxyestradiol-bis-sulphamate 0.55 μM), 24 h
Protocol: Cells (500,000) were seeded with an overnight attachment policy. After 24 h of exposure to 0.5 μM of the sulphamoylated 2ME2 analogues, cells were detached using trypsin and centrifuged at 13,000×g.

[3] = 0.5 µM, compared to vehicle-treated cells

Row | SMILES | cell growth (HeLa cells [1]; 0.1 µM) | cell growth (HeLa cells [1]; [3]) | cell growth (HeLa cells [1]; 5 µM and 10 µM) | concentration that significantly inhibits HeLa proliferation (HeLa cells [1]) | caspase-6 activity ratio compared to vehicle-treated cells (caspase-6) | caspase 3 activity (caspase 3) | cells with reduced mitochondrial potential (HeLa cells [2])
1 | CCc1cc2c(cc1OS(N)(=O)=O)CC[C@@H]1C2CC[C@]2(C)[C@@H](OS(N)(=O)=O)CC[C@@H]12 (stereo partly drawn) [EMBS, (8R, 13S, 14S, 17S)-2-ethyl-13-methyl-7,8,9, 11, 12,13, 14, 15, 16, 17-decahydro-6H-cyclopenta [a] phenanthrane-3, 17-diyl bis (sulphamate)] | 92.32% | 40.01% | slight decrease in cell growth | 0.5 µM | 3.1 |  | 
2 | CCc1cc2c(cc1OS(N)(=O)=O)CC[C@@H]1[C@@H]2CC[C@]2(C)C(=O)C=C[C@@H]12 [ESE-15-one, 2-Ethyl-3-O-sulphamoyl-estra-1,3,5 (10) 15-tetraene-3-ol-17one] | 80.31% | 40.87% | slight decrease in cell growth | 0.5 µM |  | most affected | 72%
